Test results taken from the CheMixHub viscosity set.
Values joined by “and” are separate entries in the source; they are usually repeats but may differ in a detail not shown here. Equal entries are not always repeated.

Assay: xn = mol fraction of the nth substance listed

NC(N)=O + C[N+](C)(C)CCO.[Cl-]
viscosity
Settings | 100 kPa | 101 kPa
293.15 K, x2 = 0.326 | 1696 mPa·s | –
298.15 K, x2 = 0.33 | 952.7 mPa·s | –
298.15 K, x2 = 0.333 | 750 mPa·s and 1264 mPa·s | 859.5 mPa·s
298.15 K, x2 = 0.3333 | – | 748.1 mPa·s
303 K, x2 = 0.3333 | – | 427.4 mPa·s
303.15 K, x1 = 0.7 | – | 893 mPa·s
303.15 K, x2 = 0.326 | 635.5 mPa·s | –
303.15 K, x2 = 0.33 | 628.9 mPa·s | 536.9 mPa·s
303.15 K, x2 = 0.333 | 562.7 mPa·s | –
303.15 K, x2 = 0.3333 | – | 511.6 mPa·s
308 K, x2 = 0.333 | – | 402.8 mPa·s
308 K, x2 = 0.3333 | – | 310.5 mPa·s
308.15 K, x2 = 0.326 | 414.6 mPa·s | –
308.15 K, x2 = 0.33 | 421.9 mPa·s | –
308.15 K, x2 = 0.333 | – | 348.2 mPa·s
308.15 K, x2 = 0.3333 | – | 351.5 mPa·s
313 K, x2 = 0.333 | – | 228 mPa·s
313 K, x2 = 0.3333 | – | 225.8 mPa·s
313.15 K, x2 = 0.326 | 280.7 mPa·s | –
313.15 K, x2 = 0.33 | 314 mPa·s | 242.5 mPa·s
313.15 K, x2 = 0.333 | 296.3 mPa·s | –
313.15 K, x2 = 0.3333 | – | 243 mPa·s
318 K, x2 = 0.3333 | – | 163.3 mPa·s
318.15 K, x2 = 0.326 | 196.4 mPa·s | –
318.15 K, x2 = 0.33 | 224.4 mPa·s | –
318.15 K, x2 = 0.333 | 244.7 mPa·s | 175.1 mPa·s
318.15 K, x2 = 0.3333 | – | 169.6 mPa·s
323 K, x2 = 0.333 | – | 105.6 mPa·s
323 K, x2 = 0.3333 | – | 121 mPa·s
323.15 K, x1 = 0.7 | – | 197 mPa·s
323.15 K, x2 = 0.326 | 142 mPa·s | –
323.15 K, x2 = 0.33 | 161.2 mPa·s | –
323.15 K, x2 = 0.333 | 171.5 mPa·s and 198.4 mPa·s | –

OCCOCCOCCO + C[N+](C)(C)CCO.[Cl-]
Settings | viscosity [mPa·s]
298.15 K, 101 kPa, x2 = 0.25 | 72.3

CCCCCCCCCCO + Cc1ccc(C)cc1
viscosity [mPa·s], 101 kPa
Settings | 298.15 K | 308.15 K
x2 = 0.0806 | 9.447 | 6.565
x2 = 0.1731 | 7.145 | 5.045
x2 = 0.2506 | 5.591 | 4.011
x2 = 0.3197 | 4.463 | 3.242
x2 = 0.3693 | 3.779 | 2.781
x2 = 0.4336 | 3.053 | 2.275
x2 = 0.4929 | 2.512 | 1.9
x2 = 0.5771 | 1.908 | 1.481
x2 = 0.662 | 1.456 | 1.153
x2 = 0.7265 | 1.2 | 0.963
x2 = 0.7763 | 1.04 | 0.845
x2 = 0.8293 | 0.9 | 0.744
x2 = 0.8891 | 0.776 | 0.648
x2 = 0.9369 | 0.693 | 0.59

CCOC(=O)OCC + Cc1ccc(C)cc1
viscosity [mPa·s]
Settings | 293.15 K | 298.15 K | 303.15 K | 323.15 K
101 kPa, x1 = 0.0997 | 0.6494 | 0.6068 | 0.5681 | 0.4546
101 kPa, x1 = 0.1509 | 0.6571 | 0.6141 | 0.5733 | 0.4578
101 kPa, x1 = 0.2121 | 0.6663 | 0.6229 | 0.5814 | 0.4633
101 kPa, x1 = 0.2979 | 0.6785 | 0.6347 | 0.5918 | 0.4704
101 kPa, x1 = 0.3942 | 0.693 | 0.6486 | 0.6058 | 0.4794
101 kPa, x1 = 0.495 | 0.7081 | 0.6627 | 0.618 | 0.4891
101 kPa, x1 = 0.5955 | 0.7239 | 0.6787 | 0.6309 | 0.4973
101 kPa, x1 = 0.7004 | 0.7423 | 0.6948 | 0.6471 | 0.508
101 kPa, x1 = 0.8 | 0.7603 | 0.7126 | 0.6639 | 0.5178
101 kPa, x1 = 0.8891 | 0.7782 | 0.7304 | 0.6786 | 0.5292
101.3 kPa, x1 = 0.1027 | – | 0.607 | – | –
101.3 kPa, x1 = 0.1721 | – | 0.615 | – | –
101.3 kPa, x1 = 0.2449 | – | 0.622 | – | –
101.3 kPa, x1 = 0.3566 | – | 0.636 | – | –
101.3 kPa, x1 = 0.4208 | – | 0.643 | – | –
101.3 kPa, x1 = 0.4919 | – | 0.658 | – | –
101.3 kPa, x1 = 0.6427 | – | 0.68 | – | –
101.3 kPa, x1 = 0.716 | – | 0.687 | – | –
101.3 kPa, x1 = 0.7162 | – | 0.687 | – | –
101.3 kPa, x1 = 0.8043 | – | 0.701 | – | –
101.3 kPa, x1 = 0.9158 | – | 0.723 | – | –

Cc1ccccc1C + Cc1ccc(C)cc1
101.3 kPa
Settings | viscosity [mPa·s]
298.15 K, x1 = 0.0748 | 0.6114
298.15 K, x1 = 0.1866 | 0.6242
298.15 K, x1 = 0.3032 | 0.641
298.15 K, x1 = 0.4147 | 0.6549
298.15 K, x1 = 0.5702 | 0.6779
298.15 K, x1 = 0.6823 | 0.6995
298.15 K, x1 = 0.8109 | 0.7176
298.15 K, x1 = 0.9402 | 0.7417
303.15 K, x1 = 0.0902 | 0.5764
303.15 K, x1 = 0.2065 | 0.5904
303.15 K, x1 = 0.3178 | 0.604
303.15 K, x1 = 0.4339 | 0.6204
303.15 K, x1 = 0.4577 | 0.6237
303.15 K, x1 = 0.5832 | 0.642
303.15 K, x1 = 0.6243 | 0.6474
303.15 K, x1 = 0.7864 | 0.6729
303.15 K, x1 = 0.8933 | 0.6889

Cc1ccccc1C + Cc1cccc(C)c1
viscosity [mPa·s], 101.3 kPa
Settings | x1 = 0.0817 | x1 = 0.1825 | x1 = 0.2946 | x1 = 0.4285 | x1 = 0.5533 | x1 = 0.6715 | x1 = 0.7904 | x1 = 0.9 | x1 = 0.9001
298.15 K | 0.5998 | 0.6144 | 0.6303 | 0.6512 | 0.6731 | 0.6924 | 0.7148 | 0.7349 | –
303.15 K | 0.5668 | 0.5783 | 0.5938 | 0.6119 | 0.631 | 0.6486 | 0.6675 | – | 0.6859

Cc1ccccc1C + Cc1ccccc1
viscosity [mPa·s], 101.33 kPa
Settings | x2 = 0.3003 | x2 = 0.3607 | x2 = 0.5223 | x2 = 0.6669 | x2 = 0.8205
293.15 K | 0.722 | 0.708 | 0.67 | 0.64 | 0.616
303.15 K | 0.636 | 0.626 | 0.601 | 0.567 | 0.546
313.15 K | 0.568 | 0.557 | 0.528 | 0.508 | 0.489
323.15 K | 0.507 | 0.5 | 0.472 | 0.456 | 0.441
